The source made the active and inactive calls. How the calls were made is not given here.

The data set concerns GENE-TOX genotoxicity assays, various organisms and cells. As to the kind of experiment: GENE-TOX mutagenicity studies. Conditions: for call: Assay Type: In vivo carcinogenicity studies.
The mark [1] stands for this setting: Species/Cell Type: Salmonella typhimurium (one or more of the five standard strains: TA98, TA100, TA1535, TA1537, and TA1538), Assay Type: Histidine reverse gene mutation, Ames assay, Assay Code: SALT, Evaluation Type: Evaluation A (Pre-1980).
Where [2] appears, read: Species/Cell Type: Mammalian polychromatic erythrocytes, Assay Type: Micronucleus test, chromosome aberrations, Assay Code: MNTT, Evaluation Type: Evaluation A (Pre-1980).
Where [3] appears, read: Species/Cell Type: Mouse, Sex: Male, Assay Type: Sperm morphology, Assay Code: SPI-, Evaluation Type: Evaluation A (Pre-1980).
Where [4] appears, read: Species/Cell Type: Nonhuman, Assay Code: CCGT, Evaluation Type: Evaluation A (Pre-1980).
Setting [5] is: Species/Cell Type: Nonhuman, Assay Type: Sister-chromatid exchange (SCE) in vitro, Assay Code: SC2+D, Dose Response: With dose response, Evaluation Type: Evaluation B (Post-1980).
[6] abbreviates: Species/Cell Type: Human, Assay Type: Sister-chromatid exchange (SCE) in vitro, Assay Code: SC1+D, Dose Response: With dose response, Evaluation Type: Evaluation B (Post-1980).
Where [7] appears, read: Species/Cell Type: Syrian hamster embryo (SA7/SHE) cells, Assay Type: Cell transformation, viral enhanced, Assay Code: CT7+, Evaluation Type: Evaluation A (Pre-1980).
Where [8] appears, read: Species/Cell Type: Human lymphocytes, Assay Type: Sister-chromatid exchange (SCE) in vivo, Assay Code: SCY+, Evaluation Type: Evaluation B (Post-1980).
[9] abbreviates: Species/Cell Type: Nonhuman, Assay Type: Sister-chromatid exchange (SCE) in vitro, Assay Code: SC2+D, Dose Response: With dose response, Evaluation Type: Evaluation A (Pre-1980).
Setting [10] is: Species/Cell Type: Drosophila melanogaster, Assay Type: Sex-linked recessive lethal gene mutation, Assay Code: SRLT, Evaluation Type: Evaluation A (Pre-1980).
Where [11] appears, read: Species/Cell Type: Human, Assay Type: Sister-chromatid exchange (SCE) in vitro, Assay Code: SC1T, Evaluation Type: Evaluation B (Post-1980).
The mark [12] stands for this setting: Species/Cell Type: Nonhuman, Assay Type: Sister-chromatid exchange (SCE) in vitro, Assay Code: SC2T, Evaluation Type: Evaluation B (Post-1980).
Where [13] appears, read: Species/Cell Type: Nonhuman, Assay Code: CCG+, Evaluation Type: Evaluation A (Pre-1980).
[14] abbreviates: Species/Cell Type: Drosophila melanogaster, Assay Type: Sex-linked recessive lethal gene mutation, Assay Code: SRL+, Evaluation Type: Evaluation A (Pre-1980).
The mark [15] stands for this setting: Species/Cell Type: Salmonella typhimurium (one or more of the five standard strains: TA98, TA100, TA1535, TA1537, and TA1538), Assay Type: Histidine reverse gene mutation, Ames assay, Assay Code: SAL+*, Activation: With metabolic activation, Evaluation Type: Evaluation A (Pre-1980).

For the compound `Clc1cccc(C2CO2)c1` (stereo not given), the mutagenic call reads like this: (Species/Cell Type: Escherichia coli WP2 UVRA, Assay Type: Tryptophan reverse gene mutation, Assay Code: WPU+D, Dose Response: With dose response, Evaluation Type: Evaluation A (Pre-1980)) “active; positive”; under setting [1], “no conclusion”.

As to `OC(O)C(Cl)(Cl)Cl`, the mutagenic call was “active; positive” (Species/Cell Type: Aspergillus nidulans, Assay Type: Aneuploidy, chromosome aberrations, Assay Code: ASN+, Evaluation Type: Evaluation A (Pre-1980)); “inactive; negative” (Species/Cell Type: Aspergillus nidulans, Assay Type: Mitotic recombination, Assay Code: ASG-, Evaluation Type: Evaluation A (Pre-1980)); “no conclusion” under setting [2]; “inactive; negative” under setting [3]; “inactive; negative” (Species/Cell Type: Neurospora crassa, Assay Type: Aneuploidy, chromosome aberrations, Assay Code: NEN-, Evaluation Type: Evaluation A (Pre-1980)); “active; positive” (Species/Cell Type: Salmonella typhimurium (one or more of the five standard strains: TA98, TA100, TA1535, TA1537, and TA1538), Assay Type: Histidine reverse gene mutation, Ames assay, Assay Code: SAL+, Evaluation Type: Evaluation A (Pre-1980)). The call under setting [4] is on record as “no conclusion”.

With `CC(=O)ONC(=O)c1ccc2ccccc2c1`, the mutagenic call under setting [5] was “active; positive”.

Regarding `O=c1[nH]c(=O)n([C@H]2C[C@H](O)[C@@H](CO)O2)cc1/C=C/Br`, the mutagenic call reads like this: (Species/Cell Type: Human lymphocytes, Assay Type: Sister-chromatid exchange (SCE) in vitro, Assay Code: SCL+, Evaluation Type: Evaluation B (Post-1980)) “active; positive”; under setting [6], “active; positive”.

As to `CC(=O)[O-].[Tl+]`, under setting [7], the mutagenic call was “active; positive”.

On to `[Cl][Sb]([Cl])[Cl]`, for which the mutagenic call (Species/Cell Type: Bacillus subtilis (H17 vs M45), Assay Type: Rec-assay, spot test, DNA effects (bacterial DNA repair), Assay Code: REW+, Evaluation Type: Evaluation A (Pre-1980)) was “active; positive”.

For `O=C1OC(O)C(C(Cl)Cl)=C1Cl` (stereo not given), the mutagenic call (Species/Cell Type: Mammalian polychromatic erythrocytes, Assay Type: Micronucleus test, chromosome aberrations, Assay Code: MNT-, Evaluation Type: Evaluation B (Post-1980)) was “inactive; negative”.

For the compound `CCCNC(=O)NS(=O)(=O)c1ccc(Cl)cc1`, the mutagenic call is “active; positive” under setting [8]; “active; positive” (Species/Cell Type: Mammalian polychromatic erythrocytes, Assay Type: Micronucleus test, chromosome aberrations, Assay Code: MNT+, Evaluation Type: Evaluation A (Pre-1980)); “active; positive” under setting [9]; “active; positive” (Species/Cell Type: Nonhuman, Assay Type: Sister-chromatid exchange (SCE) in vivo, Assay Code: SC3+D, Dose Response: With dose response, Evaluation Type: Evaluation B (Post-1980)).

For the compound `CCBr`, the mutagenic call under setting [10] is “no conclusion”.

Consider `COc1ccc2c(c1)c(CC(=O)O)c(C)n2C(=O)c1ccc(Cl)cc1`, for which the mutagenic call is “active; positive” under setting [8]; “no conclusion” under setting [11]; “active; positive” (Species/Cell Type: Mammalian polychromatic erythrocytes, Assay Type: Micronucleus test, chromosome aberrations, Assay Code: MNT+, Evaluation Type: Evaluation B (Post-1980)); “no conclusion” under setting [12].

For `COc1ccc(C(=O)/C(Br)=C/C(=O)O)cc1`, the mutagenic call was “active; positive” (Species/Cell Type: Human bone marrow, Assay Type: Chromosome aberrations in vivo, Assay Code: CY5+, Evaluation Type: Evaluation A (Pre-1980)) and “active; positive” (Species/Cell Type: Nonhuman bone marrow, Assay Type: Chromosome aberrations, in vivo, Assay Code: CY#+D, Dose Response: With dose response, Evaluation Type: Evaluation A (Pre-1980)).

On to `F/C(=C(/F)C(F)(F)F)C(F)(F)F`, for which the mutagenic call under setting [10] was “no conclusion”.

With `Cc1cc(C(=O)NNCc2ccccc2)no1`, the mutagenic call (Species/Cell Type: Nonhuman, Assay Type: Sister-chromatid exchange (SCE) in vivo, Assay Code: SC3+, Evaluation Type: Evaluation B (Post-1980)) was “active; positive”.

`C/C=C/c1ccc2c(c1)OCO2`: the call under setting [13] was “active; positive”.

For the compound `CCC1=C(O)C(=O)CC1`, the mutagenic call is “no conclusion” (Species/Cell Type: Human lymphocytes, Assay Type: Sister-chromatid exchange (SCE) in vitro, Assay Code: SCLT, Evaluation Type: Evaluation B (Post-1980)) and “no conclusion” under setting [11].

On to `CCOP(=S)(NC(C)C)Oc1ccccc1C(=O)OC(C)C` (stereo not given), for which the mutagenic call (Species/Cell Type: Nonhuman, Assay Type: Sister-chromatid exchange (SCE) in vitro, Assay Code: SC2-, Evaluation Type: Evaluation B (Post-1980)) was “inactive; negative”.

Regarding `Cl.[Pt]`, the mutagenic call under setting [7] is “active; positive”.

For the compound `C/C=C1/C[C@@H](C)[C@](O)(CO)C(=O)OCC2=CCN3CC[C@@H](OC1=O)[C@@H]23`, the mutagenic call was “active; positive” under setting [14] and “active; positive” under setting [15].

Take `Cc1c2c(cc3c1ccc1ccccc13)C=C[C@@H](O)[C@@H]2O`: the mutagenic call by setting is: (Species/Cell Type: Chinese hamster lung (V79) cells, Assay Type: Forward gene mutation at the HPRT or ouabain locus, Assay Code: V79+, Evaluation Type: Evaluation A (Pre-1980)) “active; positive”; (Species/Cell Type: Mouse prostate cells, Assay Type: Cell transformation, Assay Code: CTM+, Evaluation Type: Evaluation A (Pre-1980)) “active; positive”; under setting [9], “active; positive”. In addition, the call under setting [4] is on record as “no conclusion”.

Regarding `Cc1cc(Cl)ccc1OCC(=O)O`, the mutagenic call runs as follows: (Species/Cell Type: Drosophila melanogaster, Assay Type: Aneuploidy, sex chromosome gain, chromosome aberrations, Assay Code: DAG-M-F, Evaluation Type: Evaluation A (Pre-1980)) “inactive; negative”; (Species/Cell Type: Drosophila melanogaster, Assay Type: Aneuploidy, whole sex chromosome loss, chromosome aberrations, Assay Code: DAC-M-F, Evaluation Type: Evaluation A (Pre-1980)) “inactive; negative”; under setting [14], “active; positive”; (Species/Cell Type: Saccharomyces cerevisiae, Assay Type: Reverse gene mutation, Assay Code: YER+, Evaluation Type: Evaluation A (Pre-1980)) “active; positive”; (Species/Cell Type: Salmonella typhimurium, Serratia marcesens, Assay Type: Forward and reverse gene mutation, host-mediated assay, Assay Code: HM2-, Evaluation Type: Evaluation A (Pre-1980)) “inactive; negative”.

For `CCOCC`, the mutagenic call runs as follows: (Species/Cell Type: Aspergillus nidulans, Assay Type: Forward gene mutation, Assay Code: ASF-, Evaluation Type: Evaluation A (Pre-1980)) “inactive; negative”; (Species/Cell Type: Escherichia coli polA (W3119 vs P3478), Assay Type: Rec-assay, DNA effects (bacterial DNA repair), Assay Code: RE1+, Evaluation Type: Evaluation A (Pre-1980)) “active; positive”; under setting [3], “inactive; negative”; under setting [12], “no conclusion”; under setting [1], “no conclusion”.

As to `O=C[C@H](O)[C@@H](O)[C@H](O)[C@H](O)CO`, the mutagenic call is, setting by setting: under setting [2], “no conclusion”; under setting [3], “inactive; negative”.

For the compound `O[C@@H]1C=Cc2c(ccc3cc4c(ccc5ccccc54)cc23)[C@H]1O`, the call (Species/Cell Type: Nonhuman, Assay Code: CCG+L, Evaluation Type: Evaluation A (Pre-1980)) is “active; positive”. Besides, the mutagenic call is “active; positive” under setting [5] and “active; positive” under setting [15].

With `CC(=O)[O-].CC(=O)[O-].[OH-].[OH-].[OH-].[OH-].[Pb+2].[Pb+2].[Pb+2]`, the call under setting [13] was “active; positive”. The mutagenic call (Species/Cell Type: Rodents, Sex: Male, Assay Type: Dominant lethal test, Assay Code: DLTT, Evaluation Type: Evaluation A (Pre-1980)) was “no conclusion”.

Turning to `CCOP(=S)(OCC)Oc1ccc(Cl)cc1Cl`, the mutagenic call under setting [6] is “active; positive”.

As for `CCCCN1CC1`, under “Species/Cell Type: Schizosaccharomyces pombe, Assay Type: Reverse gene mutation, Assay Code: YEZ+, Evaluation Type: Evaluation A (Pre-1980)”, the mutagenic call was “active; positive”.

With `[Cl][La]([Cl])[Cl]`, for the setting “Species/Cell Type: Bacillus subtilis (H17 vs M45), Assay Type: Rec-assay, spot test, DNA effects (bacterial DNA repair), Assay Code: REW-, Evaluation Type: Evaluation A (Pre-1980)”, the mutagenic call was “inactive; negative”.

Turning to `CC1=C(C(C)O)c2cc3nc(cc4[nH]c(cc5[nH]c(cc1n2)c(C)c5CCC(=O)O)c(CCC(=O)O)c4C)C(C(C)O)=C3C` (stereo not given), the mutagenic call under setting [11] is recorded as “no conclusion”.
